Test results from patent publication US20160250224A1, “OREXIN-CONTROL OF BONE FORMATION AND LOSS” (THE BOARD OF REGENTS OF THE UNIVERSITY OF TEXAS SYSTEM, priority 2013, published 2016).
Where no end group is shown, it is not given here.

How the values were obtained:
[1] = test system: Ob/Ob mice; assay: Chronic ICV injection of OX2R agonist in Ob/Ob mice; assay type: in vivo, mouse
Description: (§1) Bone Analyses. μCT and histomorphometry were performed as described (Wei et al., 2012; Wei et al., 2010). Calcein (20 mg/kg) were injected 2 and 10 days before bone collection. For strength measurement, tibiae were tested by 3-point bending, and a strength parameter (peak load at failure) was assessed with a Test Resources DDL200 axial loading machine outfitted with an Interface SMT1-22 force transducer. Cross-head displacement rate was 0.1 mm/sec. Tests were conducted on the mid-diaphyses with the bones resting on two supports 5 mm apart and the tibial anterior margins facing upward toward the actuator. Serum P1NP and CTX-1 were measured with the Rat/Mouse P1NP EIA kit and the RatLaps™ EIA kit, respectively (Immunodiagnostic Systems) (Wei et al., 2012).
(§2) Chronic ICV Injection. Mice were single-housed one week before surgery. After anesthetized with 2-3% isoflurane, a cannula (3300PM/SPC; PlasticsOne) was implanted into the right lateral ventricle (0.3 mm posterior from the bregma, […] lateral from the midline, and 2.4 mm from the surface of skull) using standard sterile stereotactic techniques as described (Funato et al., 2009). An osmotic minipump (model 1004; Alzet) was attached to the cannula and implanted in the subcutaneous space. The OX2R selective agonist ([Ala11, D-Leu15] Orexin-B; American Peptide) (Asahi et al., 2003) or PBS control was continuously injected in the lateral ventricle for 35 days (0.5 nmol/day) before analyses. Ovariectomy or sham operation was performed 3 days before ICV infusion as described (Wei et al., 2011b).

[2] = test system: OVX-induced bone loss in WT female mice; assay: Chronic ICV injection of OX2R agonist in ovariectomy (OVX) mouse model; assay type: in vivo; details: ICV 0.5 nmol/day for 35 days from 3 days after OVX, 6-month-old female mice
Description: as §1, §2

[3] = test system: OX2R-KO mice; assay: Chronic ICV injection of OX2R agonist in OX2R-KO mice; assay type: in vivo, mouse; details: ICV 0.5 nmol/day for 35 days
Description: as §1
Chronic ICV Injection. Mice were single-housed one week before surgery. After anesthetized with 2-3% isoflurane, a cannula (3300PM/SPC; PlasticsOne) was implanted into the right lateral ventricle (0.3 mm posterior from the bregma, […] lateral from the midline, and 2.4 mm from the surface of skull) using standard sterile stereotactic techniques as described (Funato et al., 2009). An osmotic minipump (model 1004; Alzet) was attached to the cannula and implanted in the subcutaneous space. […]

[4] = test system: WT mice; assay: Chronic ICV injection of OX2R agonist in WT mice, bone analyses; assay type: in vivo, mouse
Description: as §1, §2

[5] = test system: adipocyte differentiation from WT marrow; assay: Ex vivo bone marrow adipocyte differentiation; assay type: cell-based, mouse; details: 10 nM, vs vehicle control
Description: (§3) Ex Vivo Bone Marrow Differentiation. Bone marrow cells were cultured for 4 days in MSC media (Mouse MesenCult® Proliferation Kit, StemCell Technologies), then differentiated into osteoblast with a-MEM containing 10% FBS, 5 mM β-glycerophosphate and 100 μg/ml ascorbic acid for 9 days, or differentiated into adipocytes with adipogenesis medium (MesenCult Basal Medium+Mouse MesenCult Adipogenic Stimulatory Supplement, StemCell Technologies) for 7 days (Wei et al., 2012; Wei et al., 2011a; Wei et al., 2011b). For ghrelin knockdown, siRNA was transfected twice with Fugene HD (Roche) the day before and 3 days after differentiation. Osteoclast differentiation was performed as described (Wan et al., 2007; Wei et al., 2010).

[6] = test system: ghrelin; assay: Ghrelin expression and secretion in marrow adipocyte differentiation cultures; assay type: cell-based, mouse; details: for ghrelin expression in adipocyte differentiation cultures: 10 nM, ghrelin mRNA; for ghrelin secretion: adipocyte culture (not shown)
[7] = test system: osteoblast differentiation from WT marrow; assay: Ex vivo bone marrow osteoblast differentiation; assay type: cell-based, mouse; details: 10 nM, vs vehicle control
Description: as §3

[8] = test system: ghrelin; assay: Ghrelin expression and secretion in marrow osteoblast differentiation cultures; assay type: cell-based, mouse; details: 10 nM; for ghrelin induction during osteoblast differentiation: ghrelin mRNA; for ghrelin secretion: osteoblast culture
[9] = target: T1, OX1 (Homo sapiens, UniProt O43613); details: OX1 vs OX2; cited from earlier work
T1 sequence (O43613 1-425): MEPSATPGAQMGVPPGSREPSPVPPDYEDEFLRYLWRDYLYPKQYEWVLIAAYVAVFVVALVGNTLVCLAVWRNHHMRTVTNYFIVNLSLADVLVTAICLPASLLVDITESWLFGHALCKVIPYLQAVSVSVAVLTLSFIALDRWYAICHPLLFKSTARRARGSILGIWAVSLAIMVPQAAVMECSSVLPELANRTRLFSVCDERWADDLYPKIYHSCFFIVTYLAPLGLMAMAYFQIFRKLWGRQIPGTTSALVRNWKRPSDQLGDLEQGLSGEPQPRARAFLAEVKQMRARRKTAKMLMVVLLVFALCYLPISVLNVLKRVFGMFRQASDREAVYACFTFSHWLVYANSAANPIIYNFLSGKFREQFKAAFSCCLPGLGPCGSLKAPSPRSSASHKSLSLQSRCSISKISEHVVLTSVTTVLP

[10] = test system: 3T3-L1 adipocytes; details: cited from earlier work
[11] = target: T2, orexin-A receptor (Rattus norvegicus, UniProt P56718); details: rats, low doses; cited from earlier work
T2 construct: The insula contains orexin-A receptors; from tissue; host or cells: rat brain (insula; whole brain), in vivo
T2 sequence (P56718 1-416): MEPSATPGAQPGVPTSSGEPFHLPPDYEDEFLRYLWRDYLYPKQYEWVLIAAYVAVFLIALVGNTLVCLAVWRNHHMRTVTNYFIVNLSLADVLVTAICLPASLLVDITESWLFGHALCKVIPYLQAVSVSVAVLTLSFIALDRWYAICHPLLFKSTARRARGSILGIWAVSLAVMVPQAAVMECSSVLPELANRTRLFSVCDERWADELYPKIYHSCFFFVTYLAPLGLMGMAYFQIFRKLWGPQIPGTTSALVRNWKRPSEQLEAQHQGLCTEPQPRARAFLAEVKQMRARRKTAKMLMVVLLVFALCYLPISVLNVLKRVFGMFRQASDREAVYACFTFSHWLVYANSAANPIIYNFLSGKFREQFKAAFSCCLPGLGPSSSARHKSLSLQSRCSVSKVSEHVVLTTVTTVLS

[12] = test system: insomniacs; details: phase III, three months; cited from earlier work
[13] = target: T3, orexin receptor type 2 (Homo sapiens, UniProt O43614); details: type 2 vs type 1; cited from earlier work
T3 sequence (O43614 1-444): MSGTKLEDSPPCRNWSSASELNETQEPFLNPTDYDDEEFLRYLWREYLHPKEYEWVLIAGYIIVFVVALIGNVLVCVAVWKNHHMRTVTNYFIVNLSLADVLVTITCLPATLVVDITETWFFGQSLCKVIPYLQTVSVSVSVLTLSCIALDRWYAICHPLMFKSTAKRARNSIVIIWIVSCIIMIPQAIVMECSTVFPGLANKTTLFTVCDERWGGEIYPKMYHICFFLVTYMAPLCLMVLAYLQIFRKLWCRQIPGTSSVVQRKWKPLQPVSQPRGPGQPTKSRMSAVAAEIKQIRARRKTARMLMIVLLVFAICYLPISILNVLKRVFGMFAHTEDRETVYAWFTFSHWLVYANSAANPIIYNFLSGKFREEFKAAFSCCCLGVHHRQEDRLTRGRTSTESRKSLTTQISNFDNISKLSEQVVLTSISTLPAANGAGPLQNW

[14] = ICV 0.5 nmol/day for 35 days, WT male mice, serum
[15] = ICV 0.5 nmol/day for 35 days, WT male mice, tibiae μCT

**Q.** With [Ala11, D-Leu15] Orexin-B [OX2R-AG] as the compound, how does the BV/TV [1] read?
**A.** no longer able to increase

**Q.** What about the Tb.N [1] of the same compound?
**A.** no longer able to increase

**Q.** And the Tb.Sp [1]?
**A.** no longer able to increase

**Q.** What about the bone enhancing effects ([1]; 12 week old male) of the same compound?
**A.** completely abolished

**Q.** What about the P1NP ([1]; serum) of the same compound?
**A.** no longer able to increase

**Q.** What about the OVX-induced bone loss [2] of the same compound?
**A.** attenuated

**Q.** And the “OVX-mediated increase in CTX-1” value [2]?
**A.** not significantly altered

**Q.** What about the “OVX-mediated reduction in P1NP” value [2] of the same compound?
**A.** significantly abolished

**Q.** And the “OVX-mediated reduction in bone formation rate” value [2]?
**A.** rescued

**Q.** And the “OVX-mediated reduction in osteoblast number” value [2]?
**A.** rescued

**Q.** What about the “Serum P1NP” value ([3]; 10-week-old OX2R-KO male mice) of the same compound?
**A.** unaltered

**Q.** What about the bone anabolic effect ([3]; OX2R-KO male mice) of the same compound?
**A.** abolished

**Q.** What about the “bone mass (μCT)” value ([4]; ICV 0.5 nmol/day for 35 days, WT male mice) of the same compound?
**A.** remarkably enhanced

**Q.** What about the CTX-1 [4, 14] of the same compound?
**A.** unaltered

**Q.** What about the “P1NP, increased” value [4, 14] of the same compound?
**A.** 100%

**Q.** What about the “peak load at fracture, higher” value ([4]; ICV 0.5 nmol/day for 35 days, WT male mice, three-point bending) of the same compound?
**A.** 11%

**Q.** And the “BMD, higher” value [4, 15]?
**A.** 8%

**Q.** What about the “SMI, lower” value [4, 15] of the same compound?
**A.** 25%

**Q.** What about the “Tb.N, higher” value [4, 15] of the same compound?
**A.** 32%

**Q.** What about the “Tb.Sp, lower” value [4, 15] of the same compound?
**A.** 33%

**Q.** What about the “Tb.Th, higher” value [4, 15] of the same compound?
**A.** 30%

**Q.** What about the “cortical bone BV/TV, higher” value [4, 15] of the same compound?
**A.** 1%

**Q.** What about the “cortical bone porosity, less” value [4, 15] of the same compound?
**A.** 30%

**Q.** What about the “trabecular BV/TV, higher” value [4, 15] of the same compound?
**A.** 66%

**Q.** What about the serum leptin levels ([4]; ICV injection, WT mice) of the same compound?
**A.** decreased

**Q.** For `Cc1cc(NC(=O)Nc2ccc(N(C)C)cc2)c2cc(F)cc(F)c2n1` [SB-408124], which adipocyte differentiation [5] is on record?
**A.** attenuated

**Q.** And the “ghrelin expression in adipocyte differentiation cultures” value [6]?
**A.** enhanced

**Q.** And the ghrelin secretion [6]?
**A.** elevated

**Q.** And the osteoblast differentiation [7]?
**A.** promoted

**Q.** And the “ghrelin induction during osteoblast differentiation” value [8]?
**A.** potentiated

**Q.** And the ghrelin secretion [8]?
**A.** elevated

**Q.** With `CNC(=O)[C@@H](c1ccccc1)N1CCc2cc(OC)c(OC)cc2[C@@H]1CCc1ccc(C(F)(F)F)cc1` [ACT-078573, almorexant] as the compound, how does the adipocyte differentiation [5] read?
**A.** attenuated

**Q.** What about the “ghrelin expression in adipocyte differentiation cultures” value [6] of the same compound?
**A.** enhanced

**Q.** And the ghrelin secretion [6]?
**A.** elevated

**Q.** And the osteoblast differentiation [7]?
**A.** promoted

**Q.** And the “ghrelin induction during osteoblast differentiation” value [8]?
**A.** potentiated

**Q.** What about the ghrelin secretion [8] of the same compound?
**A.** elevated

**Q.** With “orexin-A: Human orexin-A peptide, 33 amino acid residues, agonist for OX1R and OX2R (QPLPDCCRQKTCSCRLYELLHGAGNHAAGILTL; ends and bridges not checked; cysteine pairing not given here; UniProt O43612 34-66, looked up)” as the compound, how does the adipocyte differentiation [5] read?
**A.** enhanced

**Q.** And the “ghrelin expression in adipocyte differentiation cultures” value [6]?
**A.** inhibited

**Q.** And the osteoblast differentiation [7]?
**A.** inhibited

**Q.** And the “ghrelin induction during osteoblast differentiation” value [8]?
**A.** abolished

**Q.** And the “binding to both OX1 and OX2” value [9]?
**A.** approximately equal affinity

**Q.** What about the glucose uptake ([10]; 3T3-L1 adipocytes) of the same compound?
**A.** stimulates

**Q.** What about the lipogenesis ([10]; adipocytes) of the same compound?
**A.** increases

**Q.** And the lipolysis ([10]; adipocytes)?
**A.** inhibits

**Q.** What about the secretion of adiponectin ([10]; adipocytes) of the same compound?
**A.** stimulates

**Q.** With `Cc1nc2ccc(NC(=O)Nc3ccnc4cccnc34)cc2o1` [SB-334,867] as the compound, how does the nicotine self-administration [11] read?
**A.** decreased

**Q.** For `Cc1ccc(-n2nccn2)c(C(=O)N2CCN(c3nc4cc(Cl)ccc4o3)CC[C@H]2C)c1` [suvorexant], which falling asleep [12] is on record?
**A.** faster

**Q.** What about the sleep duration [12] of the same compound?
**A.** an hour longer

**Q.** What does the source list for “orexin-B: Human orexin-B, linear 28 amino acid residue peptide, agonist for mainly OX2R”?
**A.** selectivity for orexin receptor type 2 [13]: 10 fold; potency at OX1, less than at OX2 [9]: 5 times
